“And” between values parts separate entries of the source, which are not always exact repeats. Equal entries are not always repeated. “Also recorded” adds a separate entry of the source. Where two headings read alike, the source gives them in different places.
Tests used:
EGFR-TK = target: T1, EGFR-TK (Homo sapiens, UniProt P00533); test: EGFR-TK autophosphorylation inhibition (ELISA assay); format: biochemical
T1 construct: As a source of EGFR-TK, A431 human epidermoid carcinoma cell lysate was used; endogenous in cells; host or cells: A431 human epidermoid carcinoma cells (Triton X-100 lysate, EGFR captured by monoclonal antibody m108)
Protocol: Autophosphorylation Inhibition Experiments:
EGFR-TK source: As a source of EGFR-TK, A431 human epidermoid carcinoma cell lysate was used. A431 cells were grown in DMEM containing 10% fetal calf serum and antibiotics penicillin and streptomycin). After several days, the cells were removed from the flasks by incubation at 37° C. with PBS/i mM EDTA buffer for 1 hour. […] Cell lysate was obtained with a further centrifugation (10,000 rpm×10 minutes at 4° C.), and the supernatant was collected and frozen at -70° C. in aliquots.
ELISA assay: EGFR-TK autophosphorylation IC50 values were obtained by means an ELISA assay. All the following incubations were performed at room temperature and with constant shaking. After each step the plate was washed with water (5×) and TBST buffer (1×). The final volume for each well was 150 μl. A Coming 96 well ELISA plate was coated with monoclonal anti EGFR antibody m108 (Sugen Inc.) diluted in PBS (pH 8.2), and kept overnight at 4° C.
After removing the unbound m108, the plate was washed and PBS containing 5% milk (1% fat) was added for the blocking (25 minutes). One aliquot of A431 cell lysate was thawed and added to the plate.
After 25 minutes, seven different concentrations of each inhibitor were added, and for each case one well was left as a control. All inhibitors were diluted in TBS/DMSO and the final concentration of DMSO was 0.05% in each well (including the controls).
After 25 minutes, and without washing the plate, ATP/MnCl2 solution was added in each well. The final concentration was 3 μM ATP/5 mM MnCl2. In this step the temperature was kept at 26° C. and the plate was under constant shaking. The incubation with ATP/MnCl2 was for 5 minutes.
Then, to stop the phosphorylation reaction, EDTA was added (pH 8, final concentration in each well 20 mM) and after 1 minute all the plate was washed.
Afterward, polyclonal anti-phosphotyrosine serum (Sugen, Inc.) was added (dilution of antibody in TBST containing 5% milk). The incubation was for 45 minutes.
For the calorimetric detection of phosphotyrosine in EGFR-TK, TAGO anti-rabbit peroxidase conjugate antibody (Sugen, Inc.) was added in TBST/5% milk solution (45 minutes).
After washing, the colorimetric reaction was performed by adding ABTS/H2 O2 in citrate-phosphate buffer.
The analysis of the data was performed with "Regression" software.
Since the exact concentrations of m108 in the stock solution and EGFR-TK in the cell lysate were unknown, an experiment was performed to determine the optimal dilution of m108 stock and lysate. Stock m108 (approx. 0.2-0.5 μg/μl) was diluted 1:400, 1:600, 1:800 and 1:1000 with PBS, while A431 cell lysate was diluted 1:2, 1:4, 1:6, 1:8, and 1:10.

[1] = cited from earlier work
[2] = average ± SEM, A431 cell lysate, 3 μM ATP/5 mM MnCl2, Table 1, read-out: Autophosphorylation IC50
[3] = read-out: IC50 toward epidermal growth factor receptor tyrosine kinase activity (autophosphorylation)

T1 sequence (P00533 25-1210): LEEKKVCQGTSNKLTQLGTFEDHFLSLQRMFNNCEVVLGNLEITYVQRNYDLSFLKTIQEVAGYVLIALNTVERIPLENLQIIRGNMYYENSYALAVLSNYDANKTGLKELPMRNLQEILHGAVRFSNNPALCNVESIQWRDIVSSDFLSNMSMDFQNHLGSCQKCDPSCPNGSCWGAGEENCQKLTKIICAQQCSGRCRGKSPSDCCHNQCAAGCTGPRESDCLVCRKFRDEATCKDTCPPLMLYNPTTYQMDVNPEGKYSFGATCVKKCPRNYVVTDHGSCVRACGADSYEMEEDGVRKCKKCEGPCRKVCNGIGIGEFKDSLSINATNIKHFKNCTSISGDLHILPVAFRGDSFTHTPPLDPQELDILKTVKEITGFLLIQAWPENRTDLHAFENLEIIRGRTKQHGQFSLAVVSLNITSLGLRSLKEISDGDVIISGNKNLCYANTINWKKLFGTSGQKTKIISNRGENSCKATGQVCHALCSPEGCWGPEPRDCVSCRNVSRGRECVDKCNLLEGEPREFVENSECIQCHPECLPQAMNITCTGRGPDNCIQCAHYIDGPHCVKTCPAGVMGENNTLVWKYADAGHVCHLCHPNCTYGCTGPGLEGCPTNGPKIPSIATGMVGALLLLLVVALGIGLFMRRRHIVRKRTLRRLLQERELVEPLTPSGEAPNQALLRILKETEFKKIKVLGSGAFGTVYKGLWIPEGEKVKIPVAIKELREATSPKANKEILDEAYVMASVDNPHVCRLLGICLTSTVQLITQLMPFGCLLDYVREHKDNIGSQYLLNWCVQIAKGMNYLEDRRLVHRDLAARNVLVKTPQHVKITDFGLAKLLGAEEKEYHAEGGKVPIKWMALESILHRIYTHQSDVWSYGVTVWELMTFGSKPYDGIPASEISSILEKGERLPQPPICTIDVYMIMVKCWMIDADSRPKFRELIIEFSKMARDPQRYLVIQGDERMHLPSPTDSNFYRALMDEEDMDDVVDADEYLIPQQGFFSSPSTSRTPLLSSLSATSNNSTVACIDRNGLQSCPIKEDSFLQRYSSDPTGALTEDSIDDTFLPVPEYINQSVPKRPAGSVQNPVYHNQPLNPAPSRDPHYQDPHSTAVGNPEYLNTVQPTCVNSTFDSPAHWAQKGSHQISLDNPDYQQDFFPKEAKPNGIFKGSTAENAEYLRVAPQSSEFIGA

IC50 (EGFR-TK; [2])	IC50 (EGFR-TK; [3])	Structure (SMILES)	EGFR-TK autophosphorylation inhibitor potency (EGFR-TK)	plasma level after approximately 3 hours, % of the maximum ([1]; of maximum, after approximately 3 hours)	metabolism ([1]; two identified as 6- and 7-monodemethylated derivatives)
76.1 ± 3.2 nM	76 nM and 76.1 nM	COc1cc2ncnc(Nc3ccc(F)cc3)c2cc1OC [Compound 1, 4-[(4-Fluorophenyl)amino]-6,7-dimethoxyquinazoline]			
116 ± 14 nM	116 nM	COc1cc2ncnc(Nc3cc(F)cc(C(F)(F)F)c3)c2cc1OC [Compound 3, ^4-[(3-Fluoro-5-trifluoromethylphenyl)amino]-6,7-dimethoxyquinazoline]			
0.22 ± 0.18 nM	0.22 nM	COc1cc2ncnc(Nc3cc(Cl)c(Cl)cc3F)c2cc1OC [Compound 4, 4-[(3,4-Dichloro-6-fluorophenyl)amino]-6,7-dimethoxyquinazoline]	most potent inhibitor; also recorded: very potent EGFR-TK autophosphorylation inhibitor		
		COc1cc2ncnc(Nc3cccc(Br)c3)c2cc1OC [PD 153035]		2%	metabolism to four compounds
